Laboratory results reported in PubChem BioAssay (NCI).
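1) Cells in 96-well plates. 2) Compound, 48 h, 5 concentrations. 3) Linear interpolation between surrounding doses. 4) Unreached endpoint = highest concentration. GI50 marks 50% less growth. At the TGI there is no net growth.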

Columns and labels:
Experiment in all cases: DTP human tumour cell line panel, 48 h
786-0 renal = tested on: 786-0 renal
A498 renal = tested on: A498 renal
A549 NSCLC = tested on: A549 NSCLC
ACHN renal = tested on: ACHN renal
BT-549 breast = tested on: BT-549 breast
CAKI-1 renal = tested on: CAKI-1 renal
CCRF-CEM leukemia = tested on: CCRF-CEM leukemia
COLO 205 colon = tested on: COLO 205 colon
DU-145 prostate = tested on: DU-145 prostate
EKVX NSCLC = tested on: EKVX NSCLC
HCT-116 colon = tested on: HCT-116 colon
HCT-15 colon = tested on: HCT-15 colon
HL-60(TB) leukemia = tested on: HL-60(TB) leukemia
HOP-62 NSCLC = tested on: HOP-62 NSCLC
HOP-92 NSCLC = tested on: HOP-92 NSCLC
HS 578T breast = tested on: HS 578T breast
HT29 colon = tested on: HT29 colon
IGROV1 ovarian = tested on: IGROV1 ovarian
K-562 leukemia = tested on: K-562 leukemia
KM12 colon = tested on: KM12 colon
LOX IMVI melanoma = tested on: LOX IMVI melanoma
M14 melanoma = tested on: M14 melanoma
MALME-3M melanoma = tested on: MALME-3M melanoma
MCF7 breast = tested on: MCF7 breast
MDA-MB-231 breast = tested on: MDA-MB-231 breast
MDA-MB-435 = tested on: MDA-MB-435
NCI-H226 lung = tested on: NCI-H226 lung
NCI-H23 lung = tested on: NCI-H23 lung
NCI-H460 lung = tested on: NCI-H460 lung
NCI-H522 lung = tested on: NCI-H522 lung
NCI/ADR-RES ovarian = tested on: NCI/ADR-RES ovarian
OVCAR-3 ovarian = tested on: OVCAR-3 ovarian
OVCAR-4 ovarian = tested on: OVCAR-4 ovarian
OVCAR-5 ovarian = tested on: OVCAR-5 ovarian
OVCAR-8 ovarian = tested on: OVCAR-8 ovarian
PC-3 prostate = tested on: PC-3 prostate
RPMI-8226 leukemia = tested on: RPMI-8226 leukemia
RXF 393 renal = tested on: RXF 393 renal
SF-268 CNS = tested on: SF-268 CNS
SF-295 CNS = tested on: SF-295 CNS
SF-539 CNS = tested on: SF-539 CNS
SK-MEL-2 melanoma = tested on: SK-MEL-2 melanoma
SK-MEL-28 melanoma = tested on: SK-MEL-28 melanoma
SK-MEL-5 melanoma = tested on: SK-MEL-5 melanoma
SK-OV-3 ovarian = tested on: SK-OV-3 ovarian
SN12C renal = tested on: SN12C renal
SNB-19 CNS = tested on: SNB-19 CNS
SNB-75 CNS = tested on: SNB-75 CNS
SR leukemia = tested on: SR leukemia
SW-620 colon = tested on: SW-620 colon
TK-10 renal = tested on: TK-10 renal
U251 CNS = tested on: U251 CNS
UACC-257 melanoma = tested on: UACC-257 melanoma
UACC-62 melanoma = tested on: UACC-62 melanoma

Q: `O=S(=O)(Nc1ccc(-c2nc(-c3cccc(O)c3)c(-c3ccnc(Br)c3)[nH]2)cc1)c1ccccc1` was tested. Which GI50 (786-0 renal) did it give?
A: 2.51 µM

Q: And the TGI (786-0 renal)?
A: 7.48 µM

Q: What about the GI50 (A498 renal) of the same compound?
A: 0.364 µM

Q: And the TGI (A498 renal)?
A: 3.67 µM

Q: And the GI50 (A549 NSCLC)?
A: 3 µM

Q: And the TGI (A549 NSCLC)?
A: 33.1 µM

Q: And the GI50 (ACHN renal)?
A: 2.55 µM

Q: And the TGI (ACHN renal)?
A: 6.96 µM

Q: What about the GI50 (BT-549 breast) of the same compound?
A: 2.49 µM

Q: What about the TGI (BT-549 breast) of the same compound?
A: 6.76 µM

Q: What about the GI50 (CAKI-1 renal) of the same compound?
A: 2.15 µM

Q: What about the TGI (CAKI-1 renal) of the same compound?
A: 7.51 µM

Q: And the GI50 (CCRF-CEM leukemia)?
A: 1.91 µM

Q: And the TGI (CCRF-CEM leukemia)?
A: > 100 µM

Q: And the GI50 (COLO 205 colon)?
A: 2.42 µM

Q: What about the TGI (COLO 205 colon) of the same compound?
A: 6.81 µM

Q: What about the GI50 (DU-145 prostate) of the same compound?
A: 3.24 µM

Q: And the TGI (DU-145 prostate)?
A: 10.9 µM

Q: What about the GI50 (EKVX NSCLC) of the same compound?
A: 2.55 µM

Q: What about the TGI (EKVX NSCLC) of the same compound?
A: 8.09 µM

Q: What about the GI50 (HCT-116 colon) of the same compound?
A: 2.43 µM

Q: And the TGI (HCT-116 colon)?
A: 7.16 µM

Q: And the GI50 (HCT-15 colon)?
A: 1.97 µM

Q: And the TGI (HCT-15 colon)?
A: 4.76 µM

Q: And the GI50 (HL-60(TB) leukemia)?
A: 2.44 µM

Q: And the TGI (HL-60(TB) leukemia)?
A: 6.46 µM

Q: And the GI50 (HOP-62 NSCLC)?
A: 2.42 µM

Q: What about the TGI (HOP-62 NSCLC) of the same compound?
A: 6.43 µM

Q: And the GI50 (HOP-92 NSCLC)?
A: 1.69 µM

Q: And the TGI (HOP-92 NSCLC)?
A: 4.9 µM

Q: And the GI50 (HS 578T breast)?
A: 1.5 µM

Q: What about the TGI (HS 578T breast) of the same compound?
A: 4.39 µM

Q: What about the GI50 (HT29 colon) of the same compound?
A: 3.17 µM

Q: What about the TGI (HT29 colon) of the same compound?
A: 18.3 µM

Q: What about the GI50 (IGROV1 ovarian) of the same compound?
A: 2.88 µM

Q: And the TGI (IGROV1 ovarian)?
A: 11.3 µM

Q: What about the GI50 (K-562 leukemia) of the same compound?
A: 2.27 µM

Q: What about the TGI (K-562 leukemia) of the same compound?
A: > 100 µM

Q: And the GI50 (KM12 colon)?
A: 2.32 µM

Q: And the TGI (KM12 colon)?
A: 5.99 µM

Q: What about the GI50 (LOX IMVI melanoma) of the same compound?
A: 1.74 µM

Q: And the TGI (LOX IMVI melanoma)?
A: 3.29 µM

Q: What about the GI50 (M14 melanoma) of the same compound?
A: 2.5 µM

Q: What about the TGI (M14 melanoma) of the same compound?
A: 8.55 µM

Q: What about the GI50 (MALME-3M melanoma) of the same compound?
A: 2.1 µM

Q: And the TGI (MALME-3M melanoma)?
A: 6.89 µM

Q: What about the GI50 (MCF7 breast) of the same compound?
A: 2.3 µM

Q: What about the TGI (MCF7 breast) of the same compound?
A: 7.3 µM

Q: And the GI50 (MDA-MB-231 breast)?
A: 2.71 µM

Q: And the TGI (MDA-MB-231 breast)?
A: 11.7 µM

Q: What about the GI50 (MDA-MB-435) of the same compound?
A: 2.2 µM

Q: And the TGI (MDA-MB-435)?
A: 6.54 µM

Q: What about the GI50 (NCI-H226 lung) of the same compound?
A: 2.25 µM

Q: What about the TGI (NCI-H226 lung) of the same compound?
A: 7.27 µM

Q: And the GI50 (NCI-H23 lung)?
A: 2.18 µM

Q: What about the TGI (NCI-H23 lung) of the same compound?
A: 6.11 µM

Q: What about the GI50 (NCI-H460 lung) of the same compound?
A: 2.14 µM

Q: And the TGI (NCI-H460 lung)?
A: 4.71 µM

Q: What about the GI50 (NCI-H522 lung) of the same compound?
A: 2.48 µM

Q: And the TGI (NCI-H522 lung)?
A: 9.95 µM

Q: And the GI50 (NCI/ADR-RES ovarian)?
A: 3.04 µM

Q: And the TGI (NCI/ADR-RES ovarian)?
A: 32 µM

Q: What about the GI50 (OVCAR-3 ovarian) of the same compound?
A: 2.07 µM

Q: And the TGI (OVCAR-3 ovarian)?
A: 4.82 µM

Q: What about the GI50 (OVCAR-4 ovarian) of the same compound?
A: 3.09 µM

Q: And the TGI (OVCAR-4 ovarian)?
A: 15.1 µM

Q: What about the GI50 (OVCAR-5 ovarian) of the same compound?
A: 4.34 µM

Q: What about the TGI (OVCAR-5 ovarian) of the same compound?
A: 22.7 µM

Q: And the GI50 (OVCAR-8 ovarian)?
A: 2.84 µM

Q: What about the TGI (OVCAR-8 ovarian) of the same compound?
A: 9.74 µM

Q: And the GI50 (PC-3 prostate)?
A: 2.12 µM

Q: What about the TGI (PC-3 prostate) of the same compound?
A: 6.82 µM

Q: And the GI50 (RPMI-8226 leukemia)?
A: 2.35 µM

Q: What about the TGI (RPMI-8226 leukemia) of the same compound?
A: 6.63 µM

Q: What about the GI50 (RXF 393 renal) of the same compound?
A: 1.93 µM

Q: And the TGI (RXF 393 renal)?
A: 4.36 µM

Q: What about the GI50 (SF-268 CNS) of the same compound?
A: 3.18 µM

Q: And the TGI (SF-268 CNS)?
A: 13.7 µM

Q: What about the GI50 (SF-295 CNS) of the same compound?
A: 1.9 µM

Q: And the TGI (SF-295 CNS)?
A: 4.25 µM

Q: What about the GI50 (SF-539 CNS) of the same compound?
A: 2.01 µM

Q: And the TGI (SF-539 CNS)?
A: 4.75 µM

Q: And the GI50 (SK-MEL-2 melanoma)?
A: 2.41 µM

Q: What about the TGI (SK-MEL-2 melanoma) of the same compound?
A: 6.21 µM

Q: And the GI50 (SK-MEL-28 melanoma)?
A: 2.86 µM

Q: And the TGI (SK-MEL-28 melanoma)?
A: 9.36 µM

Q: And the GI50 (SK-MEL-5 melanoma)?
A: 2.4 µM

Q: What about the TGI (SK-MEL-5 melanoma) of the same compound?
A: 5.82 µM

Q: And the GI50 (SK-OV-3 ovarian)?
A: 2.76 µM

Q: What about the TGI (SK-OV-3 ovarian) of the same compound?
A: 7.34 µM

Q: What about the GI50 (SN12C renal) of the same compound?
A: 2.91 µM

Q: What about the TGI (SN12C renal) of the same compound?
A: 13.2 µM

Q: And the GI50 (SNB-19 CNS)?
A: 3.32 µM

Q: What about the TGI (SNB-19 CNS) of the same compound?
A: 15.5 µM

Q: And the GI50 (SNB-75 CNS)?
A: 1.3 µM

Q: What about the TGI (SNB-75 CNS) of the same compound?
A: 7.18 µM

Q: And the GI50 (SR leukemia)?
A: 2.29 µM

Q: What about the TGI (SR leukemia) of the same compound?
A: > 100 µM

Q: And the GI50 (SW-620 colon)?
A: 2.84 µM

Q: What about the TGI (SW-620 colon) of the same compound?
A: 10.6 µM

Q: What about the GI50 (TK-10 renal) of the same compound?
A: 3.04 µM

Q: And the TGI (TK-10 renal)?
A: 9.95 µM

Q: What about the GI50 (U251 CNS) of the same compound?
A: 2.71 µM

Q: And the TGI (U251 CNS)?
A: 10.8 µM

Q: What about the GI50 (UACC-257 melanoma) of the same compound?
A: 2.53 µM

Q: And the TGI (UACC-257 melanoma)?
A: 7.15 µM

Q: And the GI50 (UACC-62 melanoma)?
A: 1.91 µM

Q: What about the TGI (UACC-62 melanoma) of the same compound?
A: 4.97 µM
